The structures appear in SMILES notation. Where two headings read alike, the source gives them in different places. Non-standard residues stand in square brackets, D forms with d. Residues, ends and D or L forms follow the SMILES beside them.

This is an account of results in PMC6843786, “Temporin-SHa and Its Analogs as Potential Candidates for the Treatment of Helicobacter pylori” (Biomolecules, 2019).

Assay [1] deals with H. pylori (ATCC 43504). As to the method: Briefly, after the growth of H. pylori in liquid culture the optical density (OD) of the bacterial suspensions were read at 600 nm and adjusted to one. Stock solutions of the peptides at 1 mM were prepared in sterile water. Bacteria were diluted in medium to reach bacterial density around 10^5 bacteria/mL. One-hundred microliters per well of bacterial suspension were then added into sterile polypropylene 96-well microplates (Greiner BioOne, Paris, France) and exposed to increasing concentrations of peptides (from zero to 100 µM, 1:2 serial dilution). […] Plates were incubated at 37 °C for 24 h for H. pylori (ATCC 43504) and for 4–7 days for the clinical strains. H. pylori was tested in microaerophilic conditions generated using micro-anaerobic BD GasPak system. At the end of the incubation, OD600nm was measured using microplate reader (Synergy Mx, Biotek, Colmar, France). The MIC was defined as the lowest concentration of drug that inhibited visible growth of the organism. Experiments were conducted in independent triplicate (n = 3).
It is also rich with mucus to protect it from the aggressive acidity. For this reason, the impact of mucins and pepsin on the activity of the peptides was investigated. The impact of the gastric mucins on peptide activity was evaluated using a combination of commercial porcine stomach mucins MUC2 and MUC3 (Sigma–Aldrich) at a final concentration of 1 mg/mL sterilized using 0.2 µm filter. This concentration was used based on the estimated concentration of mucins present in the mucus in vivo [27]. The effect of mucins on peptides activity was evaluated by MIC and by time killing assay as explained below. The resistance of the peptides to pepsin was tested as previously described with some changes. […] This concentration was used since it corresponds the pepsin concentration in the stomach (0.5–1 mg/mL).

For assay [2], the system named is H. pylori (ATCC 43504). The protocol: The bactericidal activity of peptides was assessed using the time kill assay as previously described with some modifications. Briefly, overnight liquid culture of H. pylori (ATCC 43504) was prepared and an optical density measurement (OD600nm) was taken to provide an estimation of cell numbers in the culture. Bacterial suspension was then centrifuged at 3000 rpm for 5 min and the bacterial pellet was then resuspended in sterile PBS pH6 at approximatively 10^7 CFU/mL. The pH of PBS was changed from 7 to 6 with HCl to mimic the micro-environment surrounding H. pylori in the stomach. Indeed, although the lumen of the stomach is around 1–2, H. pylori is able, through the activity of its urease, to create a local micro-environment around it of pH 6 [31]. In addition to PBS pH 6, the time kill assay was also performed in PBS pH 6 containing a mixture of porcine stomach mucins MUC2 and MUC3 (at 1 mg/mL, final concentration) or in the presence of human gastric cells N87 producing human mucus. In that particular case, N87 cells were seeded onto 96-wells plates and left to grow for 48–72 h until they reached confluence. At that time, wells were aspirated and bacterial suspension in PBS pH 6 were added to the wells. In all cases, resuspended bacteria (200 µL) were treated with peptides or the conventional antibiotic amoxicillin at a final concentration corresponding to five times their MIC. Bacteria were then incubated in micro-aerobic conditions at 37 °C using GasPak units. […] The petri dishes were then incubated 16 h at 37 °C in microaerophilic conditions before counting of growing colonies. The number of surviving bacteria was calculated using the number of observed colonies and the dilution factor. The experiment was done in triplicate.
This is another data set of the same source.

Take `CC[C@H](C)[C@H](NC(=O)CNC(=O)[C@H](CO)NC(=O)[C@H](CC(C)C)NC(=O)[C@@H](N)Cc1ccccc1)C(=O)N[C@H](C(=O)NCC(=O)N[C@@H](CCSC)C(=O)N[C@@H](CC(C)C)C(=O)N[C@H](C)C(=O)N[C@@H](CCCCN)C(=O)N[C@@H](CC(C)C)C(=O)N[C@@H](Cc1ccccc1)C(N)=O)C(C)C` [NST1, H-Phe^1-Leu^2-Ser^3-Gly^4-Ile^5-Val^6-Gly^7-Met^8-Leu^9-D-Ala^10-Lys^11-Leu^12-Phe^13-NH2] (H-FLSGIVGML[dA]KLF-NH2): the “increase of MIC in the presence of mucins” value in the assay with H. pylori (ATCC 43504) [1] (MUC2 and MUC3 at 1 mg/mL versus no mucins) was “two”. Also, the “MIC in the Presence of mucins” value with H. pylori (ATCC 43504) [1] (porcine gastric mucins MUC2 and MUC3 at 1 mg/mL) is listed as 3.12 µM. Moreover, the “decrease of the number of CFUs” value in the assay on H. pylori (ATCC 43504) [2] (20 min, PBS pH 6, 5-times MIC) is given as “three”. Besides, the killing is on record as 99% with H. pylori (ATCC 43504) [2] (20 min, PBS pH 6, 5-times MIC) and 91–98% in the assay on H. pylori (ATCC 43504) [2] (60 min, presence of mucus (porcine MUC2/MUC3 1 mg/mL or N87 cells), 5-times MIC). In addition, the survival in the assay on H. pylori (ATCC 43504) [2] (3 h, PBS pH 6, 5-times MIC) turned out to be 0%.
